Usually IC50 stands for the concentration needed to halve the response being measured. High values mean weaker potency, low ones greater potency. By Ki is commonly meant the dissociation constant of the complex between target and ligand, obtained from inhibition or displacement. A higher Ki goes with a looser hold on the target.

We go through five compounds from ChEMBL document CHEMBL1131601, “4-Amino-2-[4-[1-(benzyloxycarbonyl)-2(S)- [[(1,1-dimethylethyl)amino]carbonyl]-piperazinyl]-6, 7-dimethoxyquinazoline (L-765,314): a potent and selective alpha1b adrenergic receptor antagonist” (J Med Chem, 1998).

Structures are written as SMILES.

In test [1] the target is T1, Alpha-1A adrenergic receptor (Rattus norvegicus, UniProt P43140).
T1 sequence (P43140 whole entry): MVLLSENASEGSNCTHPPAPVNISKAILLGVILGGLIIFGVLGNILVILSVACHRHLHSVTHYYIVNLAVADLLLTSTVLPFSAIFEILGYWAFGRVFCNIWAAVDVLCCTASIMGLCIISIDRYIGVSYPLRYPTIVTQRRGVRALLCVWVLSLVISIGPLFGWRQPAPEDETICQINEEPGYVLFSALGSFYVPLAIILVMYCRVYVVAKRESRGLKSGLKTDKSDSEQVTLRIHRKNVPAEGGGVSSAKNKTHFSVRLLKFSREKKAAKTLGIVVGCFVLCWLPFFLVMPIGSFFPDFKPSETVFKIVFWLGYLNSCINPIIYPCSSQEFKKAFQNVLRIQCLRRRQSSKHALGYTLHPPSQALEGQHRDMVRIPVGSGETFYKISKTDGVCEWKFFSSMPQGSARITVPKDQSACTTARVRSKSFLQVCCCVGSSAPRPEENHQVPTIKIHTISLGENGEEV
In words: Compound was tested for the tissue binding affinity using [3H]- Prazosin as radioligand to the rat prostate Alpha-1A adrenergic receptor subtype.

Test [2] addresses T2, Alpha-1A adrenergic receptor (Homo sapiens, UniProt P35348).
T2 sequence (P35348 whole entry): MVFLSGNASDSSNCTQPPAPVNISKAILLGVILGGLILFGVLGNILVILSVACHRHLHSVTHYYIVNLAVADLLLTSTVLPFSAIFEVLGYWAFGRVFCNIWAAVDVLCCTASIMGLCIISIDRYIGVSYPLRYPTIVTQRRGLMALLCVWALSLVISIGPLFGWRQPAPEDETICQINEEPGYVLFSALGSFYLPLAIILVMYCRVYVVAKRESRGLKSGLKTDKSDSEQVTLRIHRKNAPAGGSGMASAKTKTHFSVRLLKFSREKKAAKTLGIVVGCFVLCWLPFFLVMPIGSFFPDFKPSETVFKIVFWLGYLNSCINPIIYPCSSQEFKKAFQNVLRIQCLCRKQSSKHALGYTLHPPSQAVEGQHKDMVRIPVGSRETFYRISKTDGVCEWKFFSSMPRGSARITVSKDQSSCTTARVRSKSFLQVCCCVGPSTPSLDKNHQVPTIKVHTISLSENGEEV
In words: Compound was tested for the tissue binding affinity using [3H]- Prazosin as radioligand to the human prostate Alpha-1A adrenergic receptor subtype.

Test [3] concerns the target T3, Alpha-1B adrenergic receptor (Rattus norvegicus, UniProt P15823).
T3 sequence (P15823 whole entry): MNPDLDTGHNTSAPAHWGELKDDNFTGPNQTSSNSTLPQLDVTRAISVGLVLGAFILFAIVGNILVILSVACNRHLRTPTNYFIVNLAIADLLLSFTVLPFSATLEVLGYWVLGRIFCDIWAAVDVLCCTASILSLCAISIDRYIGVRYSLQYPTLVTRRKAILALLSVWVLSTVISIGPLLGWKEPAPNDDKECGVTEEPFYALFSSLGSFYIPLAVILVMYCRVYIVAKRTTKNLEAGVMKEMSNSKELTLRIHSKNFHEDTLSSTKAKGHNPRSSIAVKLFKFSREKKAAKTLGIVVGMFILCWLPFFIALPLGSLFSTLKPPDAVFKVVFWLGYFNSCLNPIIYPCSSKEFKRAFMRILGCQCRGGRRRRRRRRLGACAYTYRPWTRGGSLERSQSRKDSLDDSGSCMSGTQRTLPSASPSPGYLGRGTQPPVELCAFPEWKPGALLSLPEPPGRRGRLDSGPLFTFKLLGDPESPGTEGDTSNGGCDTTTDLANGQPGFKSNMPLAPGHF
The experiment in a line: Compound was evaluated for its ability to displace [125I]HEAT binding from rat Alpha-1B adrenergic receptor.

The target in test [4] is T3, Alpha-1B adrenergic receptor. In words: Compound was tested for the tissue binding affinity using [3H]- Prazosin as radioligand to the rat spleen Alpha-1B adrenergic receptor subtype. It counts as tissue-based.
In test [5] the target is T4, Alpha-1D adrenergic receptor (Rattus norvegicus, UniProt P23944).
T4 sequence (P23944 whole entry): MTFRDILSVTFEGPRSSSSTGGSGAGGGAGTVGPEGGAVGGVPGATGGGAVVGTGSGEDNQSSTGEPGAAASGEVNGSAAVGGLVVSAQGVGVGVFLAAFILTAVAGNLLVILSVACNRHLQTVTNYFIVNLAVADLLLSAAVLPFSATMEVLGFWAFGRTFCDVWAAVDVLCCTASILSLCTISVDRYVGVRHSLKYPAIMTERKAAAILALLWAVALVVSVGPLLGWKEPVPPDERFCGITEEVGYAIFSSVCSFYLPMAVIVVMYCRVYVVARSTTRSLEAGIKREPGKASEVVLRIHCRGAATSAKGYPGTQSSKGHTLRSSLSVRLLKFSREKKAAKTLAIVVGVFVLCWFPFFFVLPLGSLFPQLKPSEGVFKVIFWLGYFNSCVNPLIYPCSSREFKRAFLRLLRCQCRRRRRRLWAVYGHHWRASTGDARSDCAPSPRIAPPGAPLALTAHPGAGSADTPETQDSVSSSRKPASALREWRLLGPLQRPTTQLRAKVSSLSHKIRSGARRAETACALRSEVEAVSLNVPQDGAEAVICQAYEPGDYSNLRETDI
In words: Compound was evaluated for its ability to displace [125I]HEAT binding from rat Alpha-1D adrenergic receptor.

Test [6] deals with T2, Alpha-1A adrenergic receptor. In words: Compound was tested for its binding affinity utilizing cloned receptor binding assays by using [125 I]HEAT as radioligand to the human Alpha-1A adrenergic receptor.
Test [7] addresses T5, Alpha-1B adrenergic receptor (Homo sapiens, UniProt P35368).
T5 sequence (P35368 whole entry): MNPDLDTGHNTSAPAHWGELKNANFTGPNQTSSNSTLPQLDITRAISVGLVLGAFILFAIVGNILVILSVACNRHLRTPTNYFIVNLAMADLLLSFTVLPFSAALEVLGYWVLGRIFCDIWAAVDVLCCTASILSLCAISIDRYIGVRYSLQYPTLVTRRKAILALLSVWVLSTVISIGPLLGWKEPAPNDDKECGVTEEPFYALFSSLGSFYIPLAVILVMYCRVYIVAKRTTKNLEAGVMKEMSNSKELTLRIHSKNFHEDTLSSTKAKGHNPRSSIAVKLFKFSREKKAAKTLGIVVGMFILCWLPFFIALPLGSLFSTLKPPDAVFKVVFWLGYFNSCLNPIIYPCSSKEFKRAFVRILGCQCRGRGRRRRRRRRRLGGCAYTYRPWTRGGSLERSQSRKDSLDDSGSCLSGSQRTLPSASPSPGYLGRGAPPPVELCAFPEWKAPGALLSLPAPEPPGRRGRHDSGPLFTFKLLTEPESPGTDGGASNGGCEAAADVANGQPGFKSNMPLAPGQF
The experiment in a line: Compound was tested for the tissue binding affinity using [125I]- HEAT as radioligand to the human aorta Alpha-1B adrenergic receptor. It counts as tissue-based.

For test [8], the target named is T5, Alpha-1B adrenergic receptor. The experiment in a line: Compound was tested for the tissue binding affinity using [125I]- HEAT as radioligand to the human aorta Alpha-1B adrenergic receptor subtype. It counts as tissue-based.
The target in test [9] is T1, Alpha-1A adrenergic receptor. The experiment in a line: Compound was evaluated for its ability to displace [125I]HEAT binding from rat Alpha-1A adrenergic receptor.
Test [10] deals with T5, Alpha-1B adrenergic receptor. The experiment in a line: Compound was tested for its binding affinity utilizing cloned receptor binding assays by using [125 I]HEAT as radioligand to the human Alpha-1B adrenergic receptor.
The target of test [11] is T6, Alpha-1D adrenergic receptor (Homo sapiens, UniProt P25100).
T6 sequence (P25100 whole entry): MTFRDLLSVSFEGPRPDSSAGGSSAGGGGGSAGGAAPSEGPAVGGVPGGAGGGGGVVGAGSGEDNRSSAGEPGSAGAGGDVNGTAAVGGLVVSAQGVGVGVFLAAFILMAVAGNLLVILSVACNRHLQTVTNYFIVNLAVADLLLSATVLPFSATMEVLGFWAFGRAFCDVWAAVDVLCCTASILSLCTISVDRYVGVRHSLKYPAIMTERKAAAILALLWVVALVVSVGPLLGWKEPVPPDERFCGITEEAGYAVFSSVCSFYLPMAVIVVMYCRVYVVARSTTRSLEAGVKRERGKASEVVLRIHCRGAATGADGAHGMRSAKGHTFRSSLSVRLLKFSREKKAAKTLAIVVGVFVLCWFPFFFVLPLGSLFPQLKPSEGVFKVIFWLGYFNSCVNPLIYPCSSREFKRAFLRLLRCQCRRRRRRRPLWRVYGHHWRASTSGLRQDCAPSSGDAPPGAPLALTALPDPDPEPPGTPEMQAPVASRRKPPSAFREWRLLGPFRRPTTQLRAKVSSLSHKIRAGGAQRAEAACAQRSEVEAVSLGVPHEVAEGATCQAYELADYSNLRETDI
In words: Compound was tested for its binding affinity utilizing cloned receptor binding assays by using [125 I]HEAT as radioligand to the human Alpha-1D adrenergic receptor.

Test [12] has as its target T3, Alpha-1B adrenergic receptor. The experiment in a line: Compound was tested for the tissue binding affinity using [3H]- Prazosin as radioligand to the rat liver Alpha-1B adrenergic receptor.
In test [13] the target is T1, Alpha-1A adrenergic receptor. The experiment in a line: Compound was tested for the tissue binding affinity using [3H]- Prazosin as radioligand to the rat prostate Alpha-1A adrenergic receptor subtype.
The target in test [14] is T5, Alpha-1B adrenergic receptor. In words: Compound was tested for binding affinity utilizing cloned receptor binding assays by using [125 I]HEAT as radioligand to the human Alpha-1B adrenergic receptor.
Test [15] concerns the target T2, Alpha-1A adrenergic receptor. The experiment in a line: Compound was tested for binding affinity utilizing cloned receptor binding assays by using [125 I]HEAT as radioligand to the human Alpha-1A adrenergic receptor.
Test [16] deals with T6, Alpha-1D adrenergic receptor. In words: Compound was tested for binding affinity utilizing cloned receptor binding assays by using [125 I]HEAT as radioligand to the human Alpha-1D adrenergic receptor.
The target in test [17] is T3, Alpha-1B adrenergic receptor. The experiment in a line: Compound was tested for the tissue binding affinity using [3H]- Prazosin as radioligand to the rat spleen Alpha-1B adrenergic receptor subtype. It counts as tissue-based.
In test [18] the target is T5, Alpha-1B adrenergic receptor. In words: Compound was tested for its binding affinity utilizing cloned receptor binding assays by using [125 I]HEAT as radioligand to the human Alpha-1B adrenergic receptor (n >= 2).
The target in test [19] is T2, Alpha-1A adrenergic receptor. The experiment in a line: Compound was tested for the tissue binding affinity using [3H]- Prazosin as radioligand to the human prostate Alpha-1A adrenergic receptor subtype.

Turning to `COc1cc2nc(N3CCN(C(=O)OCc4ccccc4)[C@H](C(=O)NC(C)(C)C)C3)nc(N)c2cc1OC` [L-765314], the IC50 in test [1] was 0.34 µM; in [2], 0.59 µM; in [4], 0.0093 µM; in test [7], 5.8 µM; in test [8], 0.0088 µM; in [12], 0.0093 µM. Moreover, the Ki in test [3] came to 0.0054 µM; in [5], 0.05 µM; in test [6], 0.42 µM; in test [9], 0.5 µM; in test [10], 0.002 µM; in test [11] it was 0.034 µM.

`COc1cc2nc(N3CCN(C(=O)c4ccco4)[C@H](C(=O)NC(C)(C)C)C3)nc(N)c2cc1OC`: the IC50 in [13] was found to be 2 µM; in [2] it was 1.9 µM; in test [17] it was 0.014 µM; in test [12], 0.015 µM. The Ki in [3] was found to be 0.007 µM; in test [14] it was 0.0035 µM; in test [5], 0.078 µM; in test [15], 1.7 µM; in test [16], 0.073 µM; in [9], 0.58 µM.

For the compound `COc1ccccc1N1CCN(CCN2C(=O)CC3(CCCC3)CC2=O)CC1` [BMY-7378], the results for the Ki in test [18] and in [3] were 0.191 µM and 0.328 µM, respectively.

For `COc1cc2nc(N3CCN(C(=O)C4CCCO4)CC3)nc(N)c2cc1OC` (configuration not stated) [TERAZOSIN], the results for the Ki in test [3], in test [5] and in [11] were 0.0019 µM, 0.0034 µM and 0.002 µM, respectively.

In the case of `COc1cc2nc(N3CCN[C@H](C(=O)NC(C)(C)C)C3)nc(N)c2cc1OC`, the IC50 in [19] was 1.7 µM; in [4], 1.5 µM; in test [8], 0.031 µM; in test [12] it was 2.7 µM. In addition, the Ki in test [3] is 1.5 µM; in test [14], 0.025 µM; in [5], 0.63 µM; in [15], 0.83 µM; in test [16], 0.25 µM; in test [9], 0.51 µM.
